# Results from ChEMBL document CHEMBL3822381, “Design, synthesis, and evaluation of Trolox-conjugated amyloid-β C-terminal peptides for therapeutic intervention in an in vitro model of Alzheimer's disease” (Bioorg Med Chem, 2016).
# The source made the active and inactive calls. No cut-off for these calls is given here. Residues, ends and D or L forms follow the SMILES beside them. *: point of attachment. Trolox = Cc1c(C)c2c(c(C)c1O)CCC(C)(C(=O)*)O2
# Legend:
# [1] = target: Amyloid-beta precursor protein (Homo sapiens) (UniProt P05067); experiment: Inhibition of amyloid beta (1 to 42) (unknown origin) aggregation at 80 uM by ThT-fluorescence assay relative to control
# Amyloid-beta precursor protein (Homo sapiens), sequence (P05067 whole entry): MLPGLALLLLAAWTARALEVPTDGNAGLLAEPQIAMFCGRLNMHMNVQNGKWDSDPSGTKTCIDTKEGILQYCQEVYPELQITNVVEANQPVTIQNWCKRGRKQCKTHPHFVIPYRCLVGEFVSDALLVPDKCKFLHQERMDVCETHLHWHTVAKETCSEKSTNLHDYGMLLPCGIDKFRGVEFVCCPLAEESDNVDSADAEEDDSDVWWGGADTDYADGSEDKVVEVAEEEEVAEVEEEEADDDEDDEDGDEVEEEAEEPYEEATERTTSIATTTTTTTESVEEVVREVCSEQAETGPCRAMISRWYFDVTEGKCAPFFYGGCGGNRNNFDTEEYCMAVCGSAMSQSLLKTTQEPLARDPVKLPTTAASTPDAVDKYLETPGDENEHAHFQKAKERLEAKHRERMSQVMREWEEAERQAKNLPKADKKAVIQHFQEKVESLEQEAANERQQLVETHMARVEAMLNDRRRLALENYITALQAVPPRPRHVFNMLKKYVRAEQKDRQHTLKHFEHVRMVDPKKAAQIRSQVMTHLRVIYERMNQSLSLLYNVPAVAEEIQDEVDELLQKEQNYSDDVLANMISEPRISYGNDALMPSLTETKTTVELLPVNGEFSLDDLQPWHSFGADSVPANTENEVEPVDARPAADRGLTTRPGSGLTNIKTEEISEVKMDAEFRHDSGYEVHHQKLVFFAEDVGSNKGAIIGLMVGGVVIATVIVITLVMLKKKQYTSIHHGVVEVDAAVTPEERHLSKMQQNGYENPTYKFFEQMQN
# [2] = test system: SH-SY5Y; experiment: Neuroprotective activity against amyloid beta (1 to 42)-induced neurotoxicity in human SH-SY5Y cells assessed as increase in cell viability at 5 to 40 uM measured after 48 hrs by WST-8 assay; format: functional, cell-based
# [3] = test system: SH-SY5Y; experiment: Neuroprotective activity against amyloid beta (1 to 42)-induced neurotoxicity in human SH-SY5Y cells assessed as increase in cell viability measured after 48 hrs by WST-8 assay; format: functional, cell-based
# [4] = test system: SH-SY5Y; experiment: Cytotoxicity against human SH-SY5Y cells assessed as cell viability up to 40 uM measured after 48 hrs by WST-8 assay; format: cell-based
# [5] = test system: SH-SY5Y; experiment: Neuroprotective activity against amyloid beta (1 to 42)-induced neurotoxicity in human SH-SY5Y cells assessed as increase in cell viability at 40 uM measured after 48 hrs by WST-8 assay; format: functional, cell-based
# [6] = test system: SH-SY5Y; experiment: Antioxidant activity in human SH-SY5Y cells assessed as inhibition of H2O2-induced ROS production preincubated for 1 day prior H2O2 treatment at 25 uM by DCFH-DA-based fluorescence analysis; format: functional, cell-based
# [7] = test system: SH-SY5Y; experiment: Antioxidant activity against human SH-SY5Y cells assessed as amyloid beta (1 to 42)-induced ROS production preincubated for 1 day prior H2O2 treatment at 1.25 uM by DCFH-DA-based fluorescence analysis relative to control; format: functional
# [8] = test system: SH-SY5Y; experiment: Neuroprotective activity against amyloid beta (1 to 42)-induced neurotoxicity in human SH-SY5Y cells assessed as increase in cell viability at 20 uM measured after 48 hrs by WST-8 assay; format: functional, cell-based
Structure (SMILES),inhibition [1],other results
CC[C@H](C)[C@H](NC(=O)[C@@H](NC(=O)C1(C)CCc2c(C)c(O)c(C)c(C)c2O1)C(C)C)C(=O)N[C@@H](C)C(=O)O (stereo partly drawn),2.8%,–
Cc1c(C)c2c(c(C)c1O)CCC(C)(C(=O)NCC(=O)N[C@H](C(=O)N[C@H](C(=O)O)C(C)C)C(C)C)O2 (stereo partly drawn),inactive,–
Cc1c(C)c2c(c(C)c1O)CCC(C)(C(=O)N[C@H](C(=O)O)C(C)C)O2 (stereo partly drawn),inactive,–
CC[C@H](C)[C@H](NC(=O)[C@@H](NC(=O)[C@@H](NC(=O)CNC(=O)C1(C)CCc2c(C)c(O)c(C)c(C)c2O1)C(C)C)C(C)C)C(=O)N[C@@H](C)C(=O)N[C@H](C(=O)O)[C@@H](C)O (stereo partly drawn) (Trolox-GVVIAT-OH),5%,–
CSCC[C@H](NC(=O)[C@H](CC(C)C)NC(=O)C1(C)CCc2c(C)c(O)c(C)c(C)c2O1)C(=O)N[C@H](C(=O)NCC(=O)NCC(=O)N[C@H](C(=O)N[C@H](C(=O)O)C(C)C)C(C)C)C(C)C (stereo partly drawn) (Trolox-LMVGGVV-OH),inactive,–
Cc1c(C)c2c(c(C)c1O)CCC(C)(C(=O)N[C@H](C(=O)NCC(=O)NCC(=O)N[C@H](C(=O)N[C@H](C(=O)O)C(C)C)C(C)C)C(C)C)O2 (stereo partly drawn) (Trolox-VGGVV-OH),inactive,Activity [2]: inactive
CC[C@H](C)[C@H](NC(=O)[C@@H](NC(=O)[C@@H](NC(=O)CNC(=O)CNC(=O)[C@@H](NC(=O)C1(C)CCc2c(C)c(O)c(C)c(C)c2O1)C(C)C)C(C)C)C(C)C)C(=O)N[C@@H](C)C(=O)N[C@H](C(=O)O)[C@@H](C)O (stereo partly drawn) (Trolox-VGGVVIAT-OH),17.3%,Activity [4]: Non-toxic; Activity [5]: inactive; Activity [8]: Active
CC[C@H](C)[C@H](NC(=O)[C@@H](NC(=O)C1(C)CCc2c(C)c(O)c(C)c(C)c2O1)C(C)C)C(=O)N[C@@H](C)C(=O)N[C@H](C(=O)O)[C@@H](C)O (stereo partly drawn) (Trolox-VIAT-OH),6.6%,–
Cc1c(C)c2c(c(C)c1O)CCC(C)(C(=O)O)O2 (stereo not drawn) [TROLOX],–,inhibition [6]: Active; Activity [7]: 23.6%

# The next lines start with results.
inhibition [1],Structure (SMILES),other results
39.5%,CC[C@H](C)[C@H](NC(=O)[C@@H](NC(=O)[C@@H](NC(=O)CNC(=O)CNC(=O)[C@@H](NC(=O)[C@H](CCSC)NC(=O)[C@H](CC(C)C)NC(=O)C1(C)CCc2c(C)c(O)c(C)c(C)c2O1)C(C)C)C(C)C)C(C)C)C(=O)N[C@@H](C)C(=O)O (stereo partly drawn),–
4.7%,CC[C@H](C)[C@H](NC(=O)[C@@H](NC(=O)[C@@H](NC(=O)CNC(=O)C1(C)CCc2c(C)c(O)c(C)c(C)c2O1)C(C)C)C(C)C)C(=O)N[C@@H](C)C(=O)O (stereo partly drawn) (Trolox-GVVIA-OH),–
40.4%,CC[C@H](C)[C@H](NC(=O)[C@@H](NC(=O)[C@@H](NC(=O)CNC(=O)CNC(=O)[C@@H](NC(=O)[C@H](CCSC)NC(=O)[C@H](CC(C)C)NC(=O)C1(C)CCc2c(C)c(O)c(C)c(C)c2O1)C(C)C)C(C)C)C(C)C)C(=O)N[C@@H](C)C(=O)N[C@H](C(=O)O)[C@@H](C)O (stereo partly drawn) (Trolox-LMVGGVVIAT-OH),–
17.7%,CC[C@H](C)[C@H](NC(=O)[C@@H](NC(=O)[C@@H](NC(=O)CNC(=O)CNC(=O)[C@@H](NC(=O)C1(C)CCc2c(C)c(O)c(C)c(C)c2O1)C(C)C)C(C)C)C(C)C)C(=O)N[C@@H](C)C(=O)O (stereo partly drawn) (Trolox-VGGVVIA-OH),Activity [3]: Dose-dependent effect; Activity [4]: Non-toxic; Activity [5]: Active; inhibition [6]: Active; Activity [7]: 37.6%
